Results taken from patent US9034793B2, “Use of ribose to enhance plant growth” (Bioenergy, Inc., priority 2002, dated 2015).

Test system: bean seeds
Test: Plant growth and yield from bean seeds, daylight or darkness (Example 2)
Assay type: in vivo
Procedure: Three different treatments were explored on bean seeds to determine the effects of ribose (at two different doses) on plant growth and proliferation. [The three treatments include control (plain water), a 0.1332 M solution of ribose (5 g D-ribose dissolved in 250 ml water), and a 0.0666 M solution of ribose (5 g D-ribose dissolved in 500 ml water)]. The plants were kept under two different conditions, normal daylight and darkness. A total of six plants will be tested, with the conditions that each plant were tested at listed below. Treatments: [table] Each seed was planted under identical conditions (soil and pot size) and all at the same time. The environmental conditions (such as temperature and humidity), except for lighting, were kept constant for all the plants. Once potted, each seed received one to two tablespoons of treatment liquid (as mentioned above). A daily record was kept of the activity of each plant. Watering was done on every other day (or sooner if the soil was deemed too dry by the researcher), each again receiving one tablespoon of treatment liquid. Assessment of the effects of ribose fertilization was determined by measuring the time to the first appearance of a plant from the soil, the rate of growth, and leaf size. Table 3 represents the accumulated plant growth data from Example 2 and FIGS. 3 and 4 are graphic presentations of plant growth during light and dark conditions.

## O=C[C@H](O)[C@H](O)[C@H](O)CO [5/500, D-ribose]
Dark, Day 0 (17-Sep)
  Amount of Growth Between Measurements: 0
  Plant growth-height: 0
  Rate of Growth Between Measurements: 0
Dark, Day 3 (20-Sep)
  Amount of Growth Between Measurements: 0
  Plant growth-height: 0
  Rate of Growth Between Measurements: 0
Dark, Day 5 (22-Sep)
  Amount of Growth Between Measurements: 0
  Plant growth-height: 0
  Rate of Growth Between Measurements: 0
  Rate of Growth Overall Thru Date: 0
Dark, Day 7 (24-Sep)
  Amount of Growth Between Measurements: 5.2
  Plant growth-height: 5.2
  Rate of Growth Between Measurements: 2.60
  Rate of Growth Overall Thru Date: 0.74
Dark, Day 8 (25-Sep)
  Amount of Growth Between Measurements: 5.9
  Plant growth-height: 11.1
  Rate of Growth Between Measurements: 5.90
  Rate of Growth Overall Thru Date: 1.39
Dark, Day 9 (26-Sep)
  Amount of Growth Between Measurements: 9.7
  Plant growth-height: 20.8
  Rate of Growth Between Measurements: 9.70
  Rate of Growth Overall Thru Date: 2.31
Dark, Day 10 (27-Sep)
  Amount of Growth Between Measurements: 9.8
  Plant growth-height: 30.6
  Rate of Growth Between Measurements: 9.80
  Rate of Growth Overall Thru Date: 3.06
Dark, Day 11 (28-Sep)
  Amount of Growth Between Measurements: 5.2
  Plant growth-height: 35.8
  Rate of Growth Between Measurements: 5.20
  Rate of Growth Overall Thru Date: 3.25
Dark, Day 12 (29-Sep)
  Amount of Growth Between Measurements: 3.5
  Plant growth-height: 39.3
  Rate of Growth Between Measurements: 3.50
  Rate of Growth Overall Thru Date: 3.28
Dark, Day 13 (30-Sep)
  Amount of Growth Between Measurements: 5.5
  Plant growth-height: 44.8
  Rate of Growth Between Measurements: 5.50
  Rate of Growth Overall Thru Date: 3.45
Dark, Day 16 (3-Oct)
  Amount of Growth Between Measurements: 2
  Plant growth-height: 46.8
  Rate of Growth Between Measurements: 0.67
  Rate of Growth Overall Thru Date: 2.93
Dark, Day 19 (6-Oct)
  Amount of Growth Between Measurements: 0
  Plant growth-height: 46.8
  Rate of Growth Between Measurements: 0.00
  Rate of Growth Overall Thru Date: 2.46
Light, Day 0 (17-Sep)
  Amount of Growth Between Measurements: 0
  Plant growth-height: 0
  Rate of Growth Between Measurements: 0
Light, Day 3 (20-Sep)
  Amount of Growth Between Measurements: 0
  Plant growth-height: 0
  Rate of Growth Between Measurements: 0
Light, Day 5 (22-Sep)
  Amount of Growth Between Measurements: 0
  Plant growth-height: 0
  Rate of Growth Between Measurements: 0
  Rate of Growth Overall Thru Date: 0
Light, Day 7 (24-Sep)
  Amount of Growth Between Measurements: 0
  Plant growth-height: 0
  Rate of Growth Between Measurements: 0
  Rate of Growth Overall Thru Date: 0.00
Light, Day 8 (25-Sep)
  Amount of Growth Between Measurements: 0.5
  Plant growth-height: 0.5
  Rate of Growth Between Measurements: 0.50
  Rate of Growth Overall Thru Date: 0.06
Light, Day 9 (26-Sep)
  Amount of Growth Between Measurements: 1.6
  Plant growth-height: 2.1
  Rate of Growth Between Measurements: 1.60
  Rate of Growth Overall Thru Date: 0.23
Light, Day 10 (27-Sep)
  Amount of Growth Between Measurements: 8.4
  Plant growth-height: 10.5
  Rate of Growth Between Measurements: 8.40
  Rate of Growth Overall Thru Date: 1.05
Light, Day 11 (28-Sep)
  Amount of Growth Between Measurements: 6.1
  Plant growth-height: 16.6
  Rate of Growth Between Measurements: 6.10
  Rate of Growth Overall Thru Date: 1.51
Light, Day 12 (29-Sep)
  Amount of Growth Between Measurements: 5.9
  Plant growth-height: 22.5
  Rate of Growth Between Measurements: 5.90
  Rate of Growth Overall Thru Date: 1.88
Light, Day 13 (30-Sep)
  Amount of Growth Between Measurements: 3.8
  Plant growth-height: 26.3
  Rate of Growth Between Measurements: 3.80
  Rate of Growth Overall Thru Date: 2.02
Light, Day 16 (3-Oct)
  Amount of Growth Between Measurements: 2.1
  Plant growth-height: 28.4
  Rate of Growth Between Measurements: 0.70
  Rate of Growth Overall Thru Date: 1.78
Light, Day 19 (6-Oct)
  Amount of Growth Between Measurements: 0.6
  Plant growth-height: 29
  Rate of Growth Between Measurements: 0.20
  Rate of Growth Overall Thru Date: 1.53
